Data: ChEMBL document CHEMBL3997763 (Medchemcomm, 2016)
Activity calls are given as the source filed them. No cut-off for these calls is given here.

What was measured:
[1] = target: T1, 3-hydroxy-3-methylglutaryl-coenzyme A reductase (Homo sapiens) (UniProt P04035); assay: Inhibition of human HMG-CoA reductase catalytic domain using HMG-CoA as substrate in presence of NADPH by colorimetric method
T1 sequence (whole entry): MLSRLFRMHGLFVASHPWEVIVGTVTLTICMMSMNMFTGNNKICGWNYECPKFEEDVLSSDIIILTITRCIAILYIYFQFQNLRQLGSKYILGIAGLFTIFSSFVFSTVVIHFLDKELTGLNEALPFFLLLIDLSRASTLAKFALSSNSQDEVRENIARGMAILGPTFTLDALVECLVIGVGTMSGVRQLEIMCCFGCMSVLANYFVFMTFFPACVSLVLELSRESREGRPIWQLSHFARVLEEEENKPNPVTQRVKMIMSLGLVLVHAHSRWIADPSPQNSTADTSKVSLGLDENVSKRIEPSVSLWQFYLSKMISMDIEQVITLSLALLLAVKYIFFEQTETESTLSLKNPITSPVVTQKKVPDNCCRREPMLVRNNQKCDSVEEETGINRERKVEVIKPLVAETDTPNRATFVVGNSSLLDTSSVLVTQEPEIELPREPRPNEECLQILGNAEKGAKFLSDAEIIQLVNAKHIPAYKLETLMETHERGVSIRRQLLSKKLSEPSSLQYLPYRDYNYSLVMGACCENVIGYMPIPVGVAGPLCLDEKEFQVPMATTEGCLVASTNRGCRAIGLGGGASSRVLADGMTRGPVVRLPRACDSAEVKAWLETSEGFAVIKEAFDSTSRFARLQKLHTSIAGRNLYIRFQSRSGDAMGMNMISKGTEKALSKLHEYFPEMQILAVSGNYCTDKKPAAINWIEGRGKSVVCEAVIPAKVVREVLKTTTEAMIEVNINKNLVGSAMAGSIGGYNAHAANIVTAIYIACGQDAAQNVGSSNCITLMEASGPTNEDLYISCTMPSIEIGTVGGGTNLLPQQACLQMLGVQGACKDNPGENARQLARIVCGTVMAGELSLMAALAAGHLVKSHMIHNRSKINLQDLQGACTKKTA

[2] = target: T1, 3-hydroxy-3-methylglutaryl-coenzyme A reductase (Homo sapiens); assay: Inhibition of human HMG-CoA reductase catalytic domain at 1 uM using HMG-CoA as substrate in presence of NADPH by colorimetric method relative to control
[3] = system: Rattus norvegicus; assay: Hypolipidemic activity in HFD-induced Charles Foster rat assessed as inhibition of hepatic HMG-CoA reductase activity by measuring […] at 100 mg/kg administered as single dose via oral gavage for 30 days simultaneously with high fat diet by colorimetric method; format: functional, organism-based
[4] = system: Rattus norvegicus; assay: Hypolipidemic activity in HFD-induced Charles Foster rat assessed as reduction in serum LDL-TC at 100 mg/kg administered as single dose via oral gavage for 30 days simultaneously with high fat diet; format: functional, organism-based
[5] = target: T2, Albumin (Bos taurus, UniProt P02769); assay: Binding affinity to bovine serum albumin by absorption spectroscopic method; format: ADME; details: cattle, isolated protein
[6] = system: Rattus norvegicus; assay: Antihyperlipidemic activity in HFD-induced Charles Foster rat chronic hyperlipidemia model assessed as body weight at 100 mg/kg administered via oral gavage for 30 days simultaneously with high fat diet (reference value: 263.52 +/- 21.56 g); format: functional
[7] = system: Rattus norvegicus; assay: Hypolipidemic activity in HFD-induced Charles Foster rat assessed as reduction in serum VLDL-TG at 100 mg/kg administered as single dose via oral gavage for 30 days simultaneously with high fat diet; format: functional, organism-based
[8] = system: Rattus norvegicus; assay: Antihyperlipidemic activity in triton WR-1339 induced Charles Foster rat hyperlipidemia model assessed as inhibition of triglyceride level in serum at 50 mg/kg, po administered simultaneously with triton WR-1339 after 18 hrs by enzymatic method relative to control; format: functional
[9] = target: T1, 3-hydroxy-3-methylglutaryl-coenzyme A reductase (Homo sapiens); assay: Inhibition of human HMG-CoA reductase catalytic domain at 50 uM using HMG-CoA as substrate in presence of NADPH by colorimetric method relative to control
[10] = system: Rattus norvegicus; assay: Antihyperlipidemic activity in po dosed triton WR-1339 induced Charles Foster rat hyperlipidemia model assessed as inhibition of triglyceride level in serum administered simultaneously with triton WR-1339 after 18 hrs by enzymatic method relative to control; format: functional, organism-based
[11] = Apparent oral volume of distribution in Sprague-Dawley rat at 100 mg/kg administered as single dose by LC-MS/MS analysis; format: ADME, organism-based; details: in vivo
[12] = Stability of the compound in simulated intestinal fluid at 10 uM up to 120 mins by LC-MS/MS analysis
[13] = target: T2, Albumin; assay: Binding affinity to bovine serum albumin by fluorescence quenching method; format: ADME; details: cattle, isolated protein
[14] = system: Rattus norvegicus; assay: Hypolipidemic activity in HFD-induced Charles Foster rat chronic hyperlipidemia model assessed as reduction in liver triglyceride level at 100 mg/kg administered via oral gavage for 30 days simultaneously with high fat diet by enzymatic method relative to HFD treated vehicle; format: functional; details: 720 h
[15] = system: Rattus norvegicus; assay: Hypolipidemic activity in HFD-induced Charles Foster rat chronic hyperlipidemia model assessed as reduction in serum triglyceride level at 100 mg/kg administered via oral gavage for 30 days simultaneously with high fat diet by enzymatic method relative to HFD treated vehicle; format: functional; details: 720 h
[16] = species on record: Rattus norvegicus; assay: animal or person; format: functional; details: Charles Foster, po, 18 h
Description: Antihyperlipidemic activity in triton WR-1339 induced Charles Foster rat hyperlipidemia model assessed as inhibition of total cholesterol level in serum at 100 mg/kg, po administered simultaneously with triton WR-1339 after 18 hrs by enzymatic method relative to control

[17] = system: Liver; assay: Stability in Sprague-Dawley rat liver microsomes at 10 uM in absence of NADPH after 5 to 90 mins by LC-MS/MS analysis; format: ADME, microsome
[18] = system: Rattus norvegicus; assay: Hypolipidemic activity in HFD-induced Charles Foster rat chronic hyperlipidemia model assessed as increase in fecal excretion of cholic acid at 100 mg/kg administered via oral gavage for 30 days simultaneously with high fat diet by enzymatic method relative to HFD treated vehicle; format: functional
[19] = species on record: Rattus norvegicus; assay: animal or person; format: functional; details: Charles Foster, po, 18 h; remark: listed apart in the source
Description: Antihyperlipidemic activity in triton WR-1339 induced Charles Foster rat hyperlipidemia model assessed as inhibition of triglyceride level in serum at 100 mg/kg, po administered simultaneously with triton WR-1339 after 18 hrs by enzymatic method relative to control

[20] = system: Rattus norvegicus; assay: Hypolipidemic activity in HFD-induced Charles Foster rat assessed as increase in serum HDL-TC at 100 mg/kg administered as single dose via oral gavage for 30 days simultaneously with high fat diet; format: functional, organism-based
[21] = system: Rattus norvegicus; assay: Antihyperlipidemic activity in triton WR-1339 induced Charles Foster rat hyperlipidemia model assessed as increase in HDL-C level in serum at 150 mg/kg, po administered simultaneously with triton WR-1339 after 18 hrs by enzymatic method relative to control; format: functional
[22] = system: Rattus norvegicus; assay: Hypolipidemic activity in HFD-induced Charles Foster rat chronic hyperlipidemia model assessed as increase in fecal excretion of deoxycholic acid at 100 mg/kg administered via oral gavage for 30 days simultaneously with high fat diet by enzymatic method relative to HFD treated vehicle; format: functional
[23] = system: Rattus norvegicus; assay: Antihyperlipidemic activity in triton WR-1339 induced Charles Foster rat hyperlipidemia model assessed as inhibition of triglyceride level in serum at 150 mg/kg, po administered simultaneously with triton WR-1339 after 18 hrs by enzymatic method relative to control; format: functional
[24] = Tmax in Sprague-Dawley rat at 100 mg/kg, po administered as single dose by LC-MS/MS analysis; format: ADME, organism-based; details: in vivo
[25] = system: Rattus norvegicus; assay: Hypolipidemic activity in HFD-induced Charles Foster rat assessed as reduction in serum VLDL-TC at 100 mg/kg administered as single dose via oral gavage for 30 days simultaneously with high fat diet; format: functional, organism-based

T2 sequence (P02769 whole entry): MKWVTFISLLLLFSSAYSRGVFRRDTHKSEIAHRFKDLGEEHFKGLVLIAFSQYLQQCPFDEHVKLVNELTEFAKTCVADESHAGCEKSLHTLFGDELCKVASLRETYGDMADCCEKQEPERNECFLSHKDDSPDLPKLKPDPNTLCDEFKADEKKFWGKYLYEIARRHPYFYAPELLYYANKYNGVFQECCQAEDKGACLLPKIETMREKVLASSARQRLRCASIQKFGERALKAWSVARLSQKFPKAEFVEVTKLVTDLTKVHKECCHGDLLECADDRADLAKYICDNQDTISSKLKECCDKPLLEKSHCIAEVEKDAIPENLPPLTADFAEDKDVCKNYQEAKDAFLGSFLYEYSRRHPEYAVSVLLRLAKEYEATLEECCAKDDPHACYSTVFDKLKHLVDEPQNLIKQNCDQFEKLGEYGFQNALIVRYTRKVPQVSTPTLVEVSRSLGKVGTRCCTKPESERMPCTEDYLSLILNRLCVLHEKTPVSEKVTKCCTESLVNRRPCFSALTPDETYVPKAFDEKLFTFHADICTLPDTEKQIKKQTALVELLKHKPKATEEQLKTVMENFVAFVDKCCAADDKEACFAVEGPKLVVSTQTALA

COc1ccc(-c2cc3cc(C(c4c[nH]c5ccccc45)c4c[nH]c5ccccc45)cc(C(C)(C)C)c3oc2=O)cc1OC
inhibition [1]: Dose-dependent effect
inhibition [2]: 19%
inhibition [3]: Active
Activity [4]: Active
Activity [5]: Active
Activity [6]: 228.19 g
Activity [7]: Active
inhibition in vivo at 50 mg/kg [8]: 20%
inhibition [9]: 74%
inhibition [10]: Dose-dependent effect
Vd/F [11]: 684 L/kg
Stability [12]: Stable
Activity [13]: Active
inhibition in vivo at 100 mg/kg [14]: 29%
inhibition in vivo at 100 mg/kg [15]: 26%
inhibition in vivo at 100 mg/kg [16]: 32%
Stability [17]: Stable
Activity [18]: 31%
inhibition in vivo at 100 mg/kg [19]: 33%
Activity [20]: Active
Activity [21]: 25%
Activity [22]: 39%
inhibition in vivo at 150 mg/kg [23]: 33%
Tmax [24]: 4 h
Activity [25]: Active
